This is an account of results in ChEMBL document CHEMBL4834440, “2,2,2-trifluoro-1-(1,4,5,6-tetrahydropyridin-3-yl)ethanone derivative as efflux pump inhibitor in Mycobacterium tuberculosis” (Bioorg Med Chem Lett, 2021).

Series [1] relates to Mycobacterium tuberculosis. The series can be described thus: Antimycobacterial activity against Mycobacterium tuberculosis H37Rv assessed as inhibition of bacterial growth measured by Resazurin microtitre assay. The format is functional. In general terms: Alamar Blue is a resazurin reagent that responds to reducing activity.
Series [2] concerns Mycobacterium tuberculosis. The series is described as follows: Antimycobacterial activity against Mycobacterium tuberculosis H37Rv assessed as inhibition of bacterial growth at 100 ug/ml measured after 24 hrs relative to control. The format is functional.
In series [3] the test system is Mycobacterium tuberculosis. The series can be described thus: Antimycobacterial activity against Mycobacterium tuberculosis H37Rv under starvation condition assessed as inhibition of bacterial growth at 25 ug/ml measured after 1 day relative to control. Type of series: functional. Particulars: 24 h.
Series [4] deals with Mycobacterium tuberculosis. The series can be described thus: Antimycobacterial activity against Mycobacterium tuberculosis H37Rv under starvation condition assessed as inhibition of bacterial growth at 6.25 ug/ml measured after 9 days relative to control. Particulars: 216 h, time 9 day. Type of series: functional.
For series [5], the system named is Mycobacterium tuberculosis. The series can be described thus: Antimycobacterial activity against Mycobacterium tuberculosis H37Rv under starvation condition assessed as inhibition of bacterial growth at 100 ug/ml measured after 3 days relative to control. Type of series: functional. Particulars: 72 h, time 3 day.
Series [6] concerns Mycobacterium tuberculosis. The series can be described thus: Antimycobacterial activity against Mycobacterium tuberculosis H37Rv under starvation condition assessed as inhibition of bacterial growth at 6.25 ug/ml measured after 1 day relative to control. The format is functional. Particulars: 24 h.
For series [7], the system named is Mycobacterium tuberculosis. The series can be described thus: Antimycobacterial activity against Mycobacterium tuberculosis H37Rv under starvation condition assessed as inhibition of bacterial growth at 100 ug/ml measured after 9 days relative to control. Type of series: functional. Particulars: 216 h, time 9 day.
Series [8] concerns Mycobacterium tuberculosis. The series is described as follows: Antimycobacterial activity against Mycobacterium tuberculosis H37Rv under starvation condition assessed as inhibition of bacterial growth at 100 ug/ml measured after 1 day relative to control. Type of series: functional. The following applies: 24 h.
The test system of series [9] is Mycobacterium tuberculosis. The series is described as follows: Antimycobacterial activity against Mycobacterium tuberculosis H37Rv under starvation condition assessed as inhibition of bacterial growth at 6.25 ug/ml measured after 3 days relative to control. The format is functional. The following applies: 72 h, time 3 day.
The test system of another series is Vero. The series can be described thus: Cytotoxicity against African green monkey Vero cells assessed as cell viability measured after 24 hrs. The format is cell-based. Particulars: Chlorocebus sabaeus.
Series [10] concerns Mycobacterium tuberculosis. The series is described as follows: Antimycobacterial activity against Mycobacterium tuberculosis H37Rv assessed as inhibition of bacterial growth at 100 ug/ml measured after 3 days relative to control. The following applies: 72 h, time 3 day. Type of series: functional.
The test system of series [11] is Mycobacterium tuberculosis. The series can be described thus: Antimycobacterial activity against Mycobacterium tuberculosis H37Rv under starvation condition assessed as inhibition of bacterial growth at 25 ug/ml measured after 3 days relative to control. The format is functional. The following applies: 72 h, time 3 day.
In series [12] the test system is Mycobacterium tuberculosis. The series is described as follows: Antimycobacterial activity against Mycobacterium tuberculosis H37Rv assessed as inhibition of bacterial growth at 100 ug/ml measured after 9 days relative to control. The format is functional. The following applies: 216 h, time 9 day.
The nature of series [13]: Selectivity index, ratio of IC50 for African green monkey Vero cells to MIC for antimycobacterial activity against Mycobacterium tuberculosis FURG-2. The format is toxicity. The following applies: read-out: Selectivity Index.
Series [14] in a line: Cytotoxicity against African green monkey Vero cells assessed as cell viability at 100 ug/ml measured after 24 hrs relative to control. Type of series: cell-based. The following applies: chlorocebus sabaeus, at 100 µg/mL, read-out: Activity.
The test system of series [15] is Mycobacterium tuberculosis. The series can be described thus: Antimycobacterial activity against Mycobacterium tuberculosis H37Rv under starvation condition assessed as inhibition of bacterial growth at 25 ug/ml measured after 9 days relative to control. Type of series: functional. Particulars: 216 h, time 9 day.

≈ marks a conversion by molar mass, not a printed value.

The MIC is the lowest concentration found to suppress growth. For the molecule `CO[C@H]1/C=C/O[C@@]2(C)Oc3c(C)c(O)c4c(O)c(c(/C=N/N5CCN(C)CC5)c(O)c4c3C2=O)NC(=O)/C(C)=C\C=C\[C@H](C)[C@H](O)[C@@H](C)[C@@H](O)[C@@H](C)[C@H](OC(C)=O)[C@@H]1C` [RIFAMPIN], the minimal inhibitory concentration (MIC) in series [1] was 256 µg/mL (≈ 311 µM).

By inhibition is commonly meant the relative decrease from the control value, in per cent. In general, IC50 refers to the concentration needed to halve the response being measured. Turning to `O=C(C1=CN(CCc2ccccc2)C(NCCc2ccccc2)CC1)C(F)(F)F` (configuration not stated), the MIC in series [1] is 25 µg/mL (≈ 62.1 µM). The inhibition at 100 µg/mL in series [2] is 89.5%; in [5], 99.9%; in series [7], 100%; in [8], 97.5%; in series [10] it was 99.9%; in [12] it was 100%. The inhibition at 25 µg/mL in series [3] came out at 0%; in series [11], 99.5%; in [15], 100%. Besides, the inhibition at 6.25 µg/mL in [4] was found to be 100%; in series [6], 0%; in [9], 0%. Moreover, the IC50 with Vero was 140 µg/mL (≈ 347 µM). Moreover, the selectivity ratio in series [13] is greater than 10. Also, in series [14], the viability at 24 h, 100 ug/ml amounted to 80%.
